The results in this text go back to ChEMBL document CHEMBL1201862, “PubChem BioAssay data set” (2004).

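Values below derive from 48-hour exposures of cells grown in 96-well plates, with endpoints linearly interpolated between the two concentrations bracketing the appropriate inhibition level. The concentration for 50% growth inhibition is given as GI50.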 Calls of active or inactive are those of the source. Cut-off read from the data, not from the text of the source: active = GI50 up to about 1.1 µM and inactive = higher.

What all share (experiment): growth of human tumour cells (NCI), 48 h
For assay [1], the system named is UACC-257.
Assay [2] relates to HL-60.
The test system of assay [3] is SF-539.
The subject of assay [4] is SR.
For assay [5], the system named is SK-MEL-28.
Assay [6] relates to RPMI-8226.
For assay [7], the system named is ACHN.
Assay [8] concerns KM12.
Assay [9] concerns IGROV-1.
For assay [10], the system named is HT-29.
Assay [11] relates to CAKI-1.
Assay [12] deals with U-251.
Assay [13] deals with NCI/ADR-RES.
The test system of assay [14] is OVCAR-3.
For assay [15], the system named is MOLT-4.
Assay [16] deals with M14.

In the case of `O=CC1C[C@@H](N2C(=O)O[C@@H](c3ccccc3)[C@H]2c2ccccc2)[C@@H]1COCc1ccccc1` (some centres not stated), the GI50 was 17.9 µM (inactive) in [1]; 18.9 µM (inactive) in assay [2]; 18.7 µM (inactive) in assay [3]; 10.3 µM (inactive) in assay [4]; 20 µM (inactive) in [5]; 17.9 µM (inactive) in [6]. The GI50 in assay [7] was 24.8 µM (inactive); in [8], 43.5 µM (inactive); in assay [9], 18.2 µM (inactive); in assay [10], 17.9 µM (inactive); in assay [11] it was 36.2 µM (inactive); in assay [12] it was 16.6 µM (inactive). The GI50 in [13] is 26.6 µM (inactive); in assay [14], 14.8 µM (inactive); in assay [15] it was 6.04 µM (inactive); in assay [16] it was 19.1 µM (inactive).
`O=C1OC(c2ccccc2)N/C1=C\c1ccc2c(c1)OCO2` (configuration not stated): the GI50 was > 100 µM (inactive) in assay [1]; 0.219 µM (active) in assay [2]; 29.4 µM (inactive) in assay [3]; 28.1 µM (inactive) in [4]; 87.5 µM (inactive) in assay [5]; 25.2 µM (inactive) in assay [6]. For the same compound, the GI50 in [7] is > 100 µM (inactive); in assay [8], 46.7 µM (inactive); in assay [9] it was 48.6 µM (inactive); in assay [10], > 100 µM (inactive); in [11] it was > 100 µM (inactive); in [12], 59.3 µM (inactive). Moreover, the GI50 is > 52.2 µM (inactive) in assay [13], 79.3 µM (inactive) in assay [14], > 63.1 µM (inactive) in [15] and > 74 µM (inactive) in assay [16].
Turning to `CC(=O)n1c2ccc(Br)cc2c2nc3ccccc3nc21`, the GI50 in assay [1], in assay [2], in assay [3], in assay [4], in assay [5] and in assay [6] was > 100 µM (inactive) each time. For the same compound, the GI50 in [7], in assay [8], in assay [9], in [10], in assay [11] and in assay [12] was > 100 µM (inactive) each time. Also, the GI50 in assay [13], in assay [14], in assay [15] and in assay [16] was > 100 µM (inactive) each time.
With `Nc1nc(N)c2ncn(Cc3ccccc3CCl)c2n1`, the GI50 in assay [1] is > 100 µM (inactive); in assay [2], 0.115 µM (active); in assay [3], > 100 µM (inactive); in assay [4] it was 8.51 µM (inactive); in assay [5], > 100 µM (inactive); in assay [6] it was > 100 µM (inactive). Besides, the GI50 in [7], in assay [8], in assay [9], in [10], in assay [11] and in [12] was > 100 µM (inactive) throughout. For the same compound, the GI50 in [13], in assay [14], in assay [15] and in assay [16] was > 100 µM (inactive) each time.
With `COc1cc(Br)cc2cc(C3=CSC4=NCCN34)c(=O)oc12`, the GI50 was 25.3 µM (inactive) in assay [1]; 29.4 µM (inactive) in assay [2]; 19.9 µM (inactive) in assay [3]; 21.9 µM (inactive) in assay [4]; 29.5 µM (inactive) in assay [5]; 22.7 µM (inactive) in [6]. Also, the GI50 is 28.3 µM (inactive) in assay [7]; 20 µM (inactive) in [8]; 17.6 µM (inactive) in [9]; 19.1 µM (inactive) in [10]; 34.7 µM (inactive) in [11]; 18.1 µM (inactive) in [12]. The GI50 in [13] was 65.9 µM (inactive); in assay [14] it was 16.8 µM (inactive); in [15] it was 20 µM (inactive); in assay [16] it was 22.2 µM (inactive).
Take `COc1cc(/C=C2\N=C(c3ccccc3)N(c3ccc(C(=O)c4ccccc4)cc3N3C(=O)/C(=C/c4ccc(O)c(OC)c4)N=C3c3ccccc3)C2=O)ccc1O`: the GI50 in assay [1] was 16.8 µM (inactive); in assay [2], 5.09 µM (inactive); in assay [3] it was 5.15 µM (inactive); in [4], 3.85 µM (inactive); in [5] it was 21.2 µM (inactive); in assay [6], 8.51 µM (inactive). Further, the GI50 is 17.5 µM (inactive) in assay [7]; 8.73 µM (inactive) in [8]; 7.35 µM (inactive) in [9]; 20.3 µM (inactive) in [10]; 18.7 µM (inactive) in assay [11]; 9.79 µM (inactive) in [12]. Besides, the GI50 in assay [13] was 6.76 µM (inactive); in assay [14], 3.52 µM (inactive); in assay [15], 3.3 µM (inactive); in assay [16], 11.3 µM (inactive).
As to `N=C(N)Nc1ccc(-c2ccc(NC(=N)N)cc2)cc1`, the GI50 in assay [1] is > 73.5 µM (inactive); in [2] it was 40.9 µM (inactive); in assay [3], 20.9 µM (inactive); in [4] it was 14.6 µM (inactive); in assay [5], 45.5 µM (inactive); in [6], 19.5 µM (inactive). Moreover, the GI50 in assay [7] was 45.3 µM (inactive); in assay [8], 33.5 µM (inactive); in assay [9] it was 20.2 µM (inactive); in assay [10], 45.5 µM (inactive); in assay [11], 41.1 µM (inactive); in assay [12], 23.6 µM (inactive). Also, the GI50 in assay [13] is 42.5 µM (inactive); in [14] it was 22 µM (inactive); in assay [15] it was > 100 µM (inactive); in assay [16], 36.1 µM (inactive).
Turning to `COc1ccc(NC(=O)CC(=O)NNC(Sc2ccccc2)c2cc(/N=N/c3ccc(Br)cc3)ccc2O)cc1` (configuration not stated), the GI50 in assay [1] was > 10 µM (inactive); in assay [2], 3.61 µM (inactive); in [3] it was > 10 µM (inactive); in assay [4], 8.89 µM (inactive); in assay [5], > 10 µM (inactive); in [6], > 10 µM (inactive). Also, the GI50 in [7], in assay [8], in assay [9], in [10], in [11] and in [12] was > 10 µM (inactive) in each case. The GI50 in [13] was > 10 µM (inactive); in [14], 2.21 µM (inactive); in assay [15], 3.86 µM (inactive); in [16] it was > 10 µM (inactive).
In the case of `c1cc(-c2cscc2-c2ccsc2)cs1`, the GI50 was 58.2 µM (inactive) in assay [1]; 30.4 µM (inactive) in assay [2]; 17.8 µM (inactive) in assay [3]; 27.5 µM (inactive) in assay [4]; 98.4 µM (inactive) in assay [5]; 34.9 µM (inactive) in assay [6]. The GI50 in assay [7] is > 100 µM (inactive); in assay [8], 14.8 µM (inactive); in assay [9] it was 34.5 µM (inactive); in assay [10], > 100 µM (inactive); in assay [11], > 100 µM (inactive); in assay [12], > 100 µM (inactive). Further, the GI50 in [13] was 37.7 µM (inactive); in assay [14], 14.4 µM (inactive); in assay [15], 30.1 µM (inactive); in assay [16], 31.3 µM (inactive).
In the case of `O=[As](O)(O)c1ccc(Cc2ccc([As](=O)(O)O)cc2)cc1`, the GI50 in assay [1] is 0.499 µM (active); in assay [2], 1.09 µM (active); in [3], 0.193 µM (active); in assay [4], 0.269 µM (active); in assay [5], 1.32 µM (inactive); in assay [6], 0.284 µM (active). The GI50 in assay [7] was 1.03 µM (active); in assay [8], 1.91 µM (inactive); in assay [9] it was 0.692 µM (active); in assay [10], 0.778 µM (active); in assay [11], 0.955 µM (active); in assay [12], 0.371 µM (active). Further, the GI50 is 1.48 µM (inactive) in [13], 0.839 µM (active) in assay [14], 0.457 µM (active) in [15] and 1.06 µM (active) in assay [16].
Turning to `CC(=O)O[C@H]1CCC2[C@@H]3CCC4NC(=O)C(C#N)C[C@]4(C)C3CC[C@@]21C` (some centres not stated), the GI50 in assay [1], in assay [2], in assay [3], in assay [4], in assay [5] and in [6] was > 10 µM (inactive) in each case. Moreover, the GI50 in assay [7], in assay [8], in [9], in [10], in assay [11] and in [12] was > 10 µM (inactive) in each case. Also, the GI50 in assay [13], in [14], in assay [15] and in [16] was > 10 µM (inactive) each time.
On to `O=C(COc1ccc(Cl)c(Cl)c1)Nc1ccc[n+](Cc2ccc(S(=O)(=O)F)c(Cl)c2)c1`, for which the GI50 in assay [1] was > 100 µM (inactive); in [2], > 100 µM (inactive); in assay [3], > 100 µM (inactive); in assay [4], 40.6 µM (inactive); in assay [5] it was > 100 µM (inactive); in assay [6] it was 1.02 µM (active). The GI50 in [7], in assay [8], in [9], in assay [10], in assay [11] and in assay [12] was > 100 µM (inactive) in each case. The GI50 in assay [13] was > 100 µM (inactive); in assay [14], > 100 µM (inactive); in assay [15] it was 25.4 µM (inactive); in assay [16], > 100 µM (inactive).
